Experimental data from US20160130630A1, “METHOD FOR DETECTING CAMPYLOBACTER” (JNC CORPORATION, priority 2014, published 2016).

How the values were obtained:
ESBL-producing bacteria = assay: growth inhibition of ESBL-producing bacteria; type: cell-based
Campylobacter bacteria = assay: growth inhibition of Campylobacter bacteria by cephamycin antibiotics; type: cell-based

With `CO[C@@]1(NC(=O)Cc2cccs2)C(=O)N2C(C(=O)O)=C(COC(N)=O)CS[C@@H]21` [Cefoxitin] the “inhibition of growth of ESBL-producing bacteria” value (ESBL-producing bacteria) was “inhibits the growth” and the “inhibition of growth of Campylobacter bacteria” value (Campylobacter bacteria) was “does not inhibit growth”.
